Experimental data published in the NIST ThermoML archive (doi:10.1021/acs.jced.6b00360).
± gives the expanded uncertainty stated by the source.

Settings: Liquid, Vibrating tube method

| mass density (313.15 K, 101.33 kPa) [kg/m3] | mass density (323.15 K, 101.33 kPa) [kg/m3] | mass density (333.15 K, 101.33 kPa) [kg/m3] | mass density (343.15 K, 101.33 kPa) [kg/m3] | mass density (352.15 K, 101.33 kPa) [kg/m3] | mass density (280.15 K, 100 kPa) [kg/m3] | mass density (280.15 K, 40000 kPa) [kg/m3] | mass density (293.15 K, 100 kPa) [kg/m3] | mass density (293.15 K, 40000 kPa) [kg/m3] | mass density (303.15 K, 100 kPa) [kg/m3] | mass density (303.15 K, 40000 kPa) [kg/m3] | mass density (313.15 K, 100 kPa) [kg/m3] | mass density (313.15 K, 40000 kPa) [kg/m3] | mass density (323.15 K, 100 kPa) [kg/m3] | mass density (323.15 K, 40000 kPa) [kg/m3] | mass density (333.15 K, 100 kPa) [kg/m3] | mass density (333.15 K, 40000 kPa) [kg/m3] | mass density (343.15 K, 100 kPa) [kg/m3] | mass density (352.15 K, 100 kPa) [kg/m3] | SMILES |
| --- | --- | --- | --- | --- | --- | --- | --- | --- | --- | --- | --- | --- | --- | --- | --- | --- | --- | --- | --- |
| 959.4 ± 3.9 | 951 ± 3.9 | 943.1 ± 3.9 | 934.4 ± 3.8 | 927 ± 3.8 | – | – | – | – | – | – | – | – | – | – | – | – | – | – | COC(=O)CCCCCCCCCCC(=O)OC [dimethyl dodecanoate] |
| – | – | – | – | – | 897.46 ± 5.7 | 914.37 ± 5.8 | 886.83 ± 5.6 | 906.75 ± 5.8 | 878.63 ± 5.5 | 895.63 ± 5.7 | 870.71 ± 5.5 | 888.48 ± 5.7 | 862.33 ± 5.4 | 881.75 ± 5.6 | 854.49 ± 5.3 | 874.61 ± 5.6 | 845.8 ± 5.3 | 838.42 ± 5.2 | C=CCCCCCCCCC(=O)OC [methyl 10-undecenoate] |
